Measured values: patent US20230321123A1, “INHIBITORS OF PSEUDOMONAS AERUGINOSA VIRULENCE FACTOR LasB” (Helmholtz-Zentrum Für Infektionsforschung GmbH, priority 2020, published 2023)

biological target: LasB (Pseudomonas aeruginosa, UniProt Q02RJ6); assay: biochemical; parameters: species or system P. aeruginosa; settings: @ 50 μm
Sequence (Q02RJ6 198-498): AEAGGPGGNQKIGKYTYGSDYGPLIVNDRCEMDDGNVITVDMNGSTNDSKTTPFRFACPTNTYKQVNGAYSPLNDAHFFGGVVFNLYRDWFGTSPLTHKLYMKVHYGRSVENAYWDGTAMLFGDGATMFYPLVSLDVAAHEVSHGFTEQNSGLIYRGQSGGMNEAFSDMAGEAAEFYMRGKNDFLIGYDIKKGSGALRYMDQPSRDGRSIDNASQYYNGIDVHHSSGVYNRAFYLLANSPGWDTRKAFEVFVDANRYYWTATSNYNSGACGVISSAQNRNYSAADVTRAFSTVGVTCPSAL

| Compound | inhibition of LasB |
| --- | --- |
| O=C(CP(=O)(O)O)Nc1ccc(-c2ccc(Cl)cc2)cn1 [Example 90] | 31% inhibition @ 50 μm |

same assay, conditions: IC50 against LasB

| Compound | IC50 |
| --- | --- |
| CC(C)CC(C(=O)N[C@H]1CCCN(Cc2ccc(Cl)cc2)C1)P(=O)(O)O (mixture of isomers) [Example 147, (1-(((S)-1-(4-Chlorobenzyl)piperidin-3-yl)amino)-4-methyl-1-oxopentan-2-yl)phosphonic acid] | 5180 ± 530 nM |
| O=C(Nc1ccccc1)C(S)Cc1ccccc1 (single isomer, unassigned) [Example 1 E1, 2-Mercapto-N,3-diphenylpropanamide] | 4800 ± 700 nM |
| O=C(Nc1ccccc1)C(S)Cc1ccccc1 (single isomer, unassigned) [Example 1 E2, 2-Mercapto-N,3-diphenylpropanamide] | 1000 ± 100 nM |
| Cc1cccc(NC(=O)C(S)Cc2ccccc2)c1 (stereo not drawn) [Example 7] | 980 ± 430 nM |
| O=C(Nc1ccc([N+](=O)[O-])cc1)C(S)Cc1ccccc1 (stereo not drawn) [Example 9] | 970 ± 100 nM |
| O=C(Nc1ccccc1)C(S)Cc1ccc(O)cc1 (stereo not drawn) [Example 11] | 7300 ± 500 nM |
| CC(S)C(=O)Nc1ccc(Cl)c(Cl)c1 (stereo not drawn) [Example 15] | 4500 ± 700 nM |
| COc1ccc(NC(=O)C(C)S)cc1 (stereo not drawn) [Example 16] | 45000 ± 1000 nM |
| CC(=O)c1ccc(NC(=O)C(C)S)cc1 (stereo not drawn) [Example 17] | 89000 ± 9000 nM |
| CCC(S)C(=O)Nc1ccc(Cl)c(Cl)c1 (stereo not drawn) [Example 18] | 2400 ± 400 nM |
| CCC(S)C(=O)Nc1ccc(OC)cc1 (stereo not drawn) [Example 19] | 4200 ± 600 nM |
| CCC(S)C(=O)Nc1ccc(C(C)=O)cc1 (stereo not drawn) [Example 20] | 10000 ± 2000 nM |
| CC(C)C(S)C(=O)Nc1ccc(Cl)c(Cl)c1 (stereo not drawn) [Example 21] | 2500 ± 300 nM |
| COc1ccc(NC(=O)C(S)C(C)C)cc1 (stereo not drawn) [Example 22] | 16000 ± 1000 nM |
| CC(=O)c1ccc(NC(=O)C(S)C(C)C)cc1 (stereo not drawn) [Example 23] | 22000 nM |
| CCCC(S)C(=O)Nc1ccccc1 (stereo not drawn) [Example 24] | 4800 ± 400 nM |
| CCCC(S)C(=O)Nc1ccc(C)cc1 (stereo not drawn) [Example 25] | 2000 ± 200 nM |
| CCCC(S)C(=O)Nc1ccc(Cl)c(Cl)c1 (stereo not drawn) [Example 26] | 4000 ± 600 nM |
| CCCC(S)C(=O)Nc1ccc(OC)cc1 (stereo not drawn) [Example 27] | 2400 ± 600 nM |
| CCCC(S)C(=O)Nc1ccc(C(C)=O)cc1 (stereo not drawn) [Example 28] | 2600 ± 500 nM |
| CCCCC(S)C(=O)Nc1ccc(Cl)c(Cl)c1 (stereo not drawn) [Example 29] | 6800 ± 1100 nM |

| Compound | IC50 |
| --- | --- |
| CCCCC(S)C(=O)Nc1ccc(OC)cc1 (stereo not drawn) [Example 30] | 2800 ± 300 nM |
| CC(C)CC(S)C(=O)Nc1ccc(Cl)c(Cl)c1 (stereo not drawn) [Example 31] | 2600 ± 200 nM |
| COc1ccccc1NC(=O)C(S)CC(C)C (stereo not drawn) [Example 32] | 700 ± 40 nM |
| COc1cccc(NC(=O)C(S)CC(C)C)c1 (stereo not drawn) [Example 33] | 560 ± 30 nM |
| COc1ccc(NC(=O)C(S)CC(C)C)cc1 (stereo not drawn) [Example 34] | 360 ± 110 nM |
| CC(C)CC(S)C(=O)Nc1ccc(Cl)cc1 (stereo not drawn) [Example 38] | 840 ± 240 nM |
| CC(=O)c1ccc(NC(=O)C(S)CC(C)C)cc1 (stereo not drawn) [Example 39] | 690 ± 340 nM |
| CC(C)CC(S)C(=O)Nc1ccccc1O (stereo not drawn) [Example 40] | 1400 ± 200 nM |
| CCC(C)C(S)C(=O)Nc1ccc(Cl)c(Cl)c1 (stereo not drawn) [Example 43] | 7500 ± 200 nM |
| CCC(C)C(S)C(=O)Nc1ccc(OC)cc1 (stereo not drawn) [Example 44] | 17000 ± 2000 nM |
| COc1ccc(NC(=O)C(S)CC2CC2)cc1 (stereo not drawn) [Example 46] | 3900 ± 600 nM |
| COc1ccc(NC(=O)C(S)CC2CCCCC2)cc1 (stereo not drawn) [Example 48] | 2600 ± 1200 nM |
| COCC(S)C(=O)Nc1ccc(Cl)c(Cl)c1 (stereo not drawn) [Example 49] | 2400 ± 600 nM |
| COCC(S)C(=O)Nc1ccc(OC)cc1 (stereo not drawn) [Example 50] | 17000 ± 1000 nM |
| O=C(O)CC(S)C(=O)Nc1ccc(Cl)c(Cl)c1 (stereo not drawn) [Example 54] | 3900 ± 400 nM |
| O=C(Nc1nc2ccccc2s1)C(S)Cc1ccccc1 (stereo not drawn) [Example 55] | 750 ± 70 nM |
| COc1ccc2nc(NC(=O)C(S)Cc3ccccc3)sc2c1 (stereo not drawn) [Example 56] | 950 ± 80 nM |
| O=C(Nc1nc2ccccc2[nH]1)C(S)Cc1ccccc1 (stereo not drawn) [Example 61] | 7700 ± 1400 nM |
| CC(C)CC(S)C(=O)Nc1nc2ccccc2s1 (stereo not drawn) [Example 62] | 650 ± 140 nM |
| CC(C)CC(C(=O)Nc1ccc(Cl)c(Cl)c1)P(=O)(O)O (stereo not drawn) [Example 64] | 26 ± 4 nM |
| Cc1ccc(NC(=O)C(CC(C)C)P(=O)(O)O)c(F)c1 (stereo not drawn) [Example 65] | 116 ± 16 nM |

| Compound | IC50 |
| --- | --- |
| COc1ccc(NC(=O)C(CC(C)C)P(=O)(O)O)cc1 (stereo not drawn) [Example 66] | 52 ± 10 nM |
| CC(=O)c1ccc(NC(=O)C(CC(C)C)P(=O)(O)O)cc1 (stereo not drawn) [Example 67] | 40 ± 12 nM |
| CC(C)CC(C(=O)Nc1ccc(C(F)(F)F)cc1)P(=O)(O)O (stereo not drawn) [Example 68] | 26 ± 8 nM |
| Cc1ccc(NC(=O)C(CC(C)C)P(=O)(O)O)c(C)c1 (stereo not drawn) [Example 69] | 84 ± 3 nM |
| CC(C)CC(C(=O)Nc1ccc(F)cc1)P(=O)(O)O (stereo not drawn) [Example 70] | 93 ± 22 nM |
| CC(C)CC(C(=O)Nc1ccc(Cl)cc1)P(=O)(O)O (stereo not drawn) [Example 71] | 48 ± 4 nM |
| CC(C)CC(C(=O)Nc1ccc(Br)cc1)P(=O)(O)O (stereo not drawn) [Example 72] | 49 ± 2 nM |
| CC(C)CC(C(=O)Nc1ccc(C#N)cc1)P(=O)(O)O (stereo not drawn) [Example 73] | 25 ± 1 nM |
| CC(C)CC(C(=O)Nc1ccc(S(=O)(=O)C(F)(F)F)cc1)P(=O)(O)O (stereo not drawn) [Example 74] | 28 ± 6 nM |
| CC(C)CC(C(=O)Nc1cccc2ccccc12)P(=O)(O)O (stereo not drawn) [Example 75] | 69 ± 8 nM |
| CC(C)CC(C(=O)Nc1ccc2ccccc2c1)P(=O)(O)O (stereo not drawn) [Example 76] | 64 ± 10 nM |
| CC(C)CC(C(=O)Nc1ccc2c(c1)CCC2)P(=O)(O)O (stereo not drawn) [Example 77] | 44 ± 4 nM |
| Cc1ccc(NC(=O)C(Cc2ccccc2)P(=O)(O)O)cc1 (stereo not drawn) [Example 78] | 137 ± 33 nM |
| O=C(Nc1ccc(C(F)(F)F)cc1)C(Cc1ccccc1)P(=O)(O)O (stereo not drawn) [Example 79] | 102 ± 1 nM |
| Cc1ccc(NC(=O)C(CC2CCCCC2)P(=O)(O)O)cc1 (stereo not drawn) [Example 80] | 2030 ± 110 nM |
| O=C(Nc1ccc(C(F)(F)F)cc1)C(CC1CCCCC1)P(=O)(O)O (stereo not drawn) [Example 81] | 1870 ± 30 nM |
| CC(C)CC(C(=O)Nc1ccc(Cl)cn1)P(=O)(O)O (stereo not drawn) [Example 82] | 501 ± 39 nM |
| CC(C)CC(C(=O)Nc1ccc(Cl)nc1)P(=O)(O)O (stereo not drawn) [Example 83] | 1130 ± 20 nM |
| CC(C)CC(C(=O)Nc1ccc(C(N)=O)nc1)P(=O)(O)O (stereo not drawn) [Example 84] | 223 ± 16 nM |
| COC(=O)c1ccc(NC(=O)C(CC(C)C)P(=O)(O)O)cn1 (stereo not drawn) [Example 85] | 194 ± 11 nM |
| CC(C)CC(C(=O)Nc1cnc(Cl)nc1)P(=O)(O)O (stereo not drawn) [Example 86] | 498 ± 25 nM |

| Compound | IC50 |
| --- | --- |
| CC(C)CC(C(=O)Nc1cnc(Br)nc1)P(=O)(O)O (stereo not drawn) [Example 87] | 384 ± 2 nM |
| CC(C)CC(C(=O)Nc1ccc(Cl)nn1)P(=O)(O)O (stereo not drawn) [Example 88] | 18800 ± 740 nM |
| CC(C)CC(C(=O)Nc1ccc(Br)nn1)P(=O)(O)O (stereo not drawn) [Example 89] | 7910 ± 390 nM |
| CC(C)CC(C(=O)N1CCN(c2ccc(Cl)cc2)CC1)P(=O)(O)O (stereo not drawn) [Example 101] | 1450 ± 30 nM |
| CC(C)CC(C(=O)N1CCN(c2ncc(Br)cn2)CC1)P(=O)(O)O (stereo not drawn) [Example 102] | 35800 ± 1750 nM |
| CC(C)CC(C(=O)NC1CCN(c2ccc(Cl)cc2)CC1)P(=O)(O)O (stereo not drawn) [Example 103] | 1910 ± 110 nM |
| CC(C)CC(C(=O)Nc1ccc(NS(=O)(=O)c2ccc3c(c2)CN(C(=O)C(F)(F)F)CC3)cc1)P(=O)(O)O (stereo not drawn) [Example 115] | 57 ± 3 nM |
| CC(C)CC(C(=O)Nc1ccc(NC(=O)c2ccc(Cl)c(Cl)c2)cc1)P(=O)(O)O (stereo not drawn) [Example 118] | 25 ± 1 nM |
| CC(C)CC(C(=O)Nc1ccc(NC(=O)C(Cc2ccccc2)c2ccccc2)cc1)P(=O)(O)O (stereo not drawn) [Example 120] | 30 ± 1 nM |
| CC(C)CC(C(=O)Nc1ccc(NC(=O)c2nc(Cl)cs2)cc1)P(=O)(O)O (stereo not drawn) [Example 129] | 49 ± 2 nM |
| CC(C)CC(C(=O)Nc1ccc(NC(=O)c2ccc(Cl)c(Cl)c2)cc1)P(=O)(O)O (stereo not drawn) [Example 137] | 41 ± 3 nM |
| CC(C)CC(C(=O)NC1CCN(Cc2ccc(Cl)cc2)CC1)P(=O)(O)O (stereo not drawn) [Example 146] | 2270 ± 70 nM |
| CC(C)CC(C(=O)N[C@@H]1CCCN(Cc2ccc(Cl)cc2)C1)P(=O)(O)O (stereo partly drawn) [Example 148] | 8360 ± 260 nM |
| CC(C)C(CC(=O)N1CCN(Cc2ccc(-c3ccc(Cl)cc3)cc2)CC1)P(=O)(O)O (stereo not drawn) [Example 149] | 7280 ± 960 nM |
| CC(C)CC(C(=O)N1CCN(Cc2ccc(-c3ccc(Cl)cc3)cc2)CC1)P(=O)(O)O (stereo not drawn) [Example 150] | 8660 ± 1110 nM |
| CC(C)CC(C(=O)NC12CC(C(=O)Nc3ccc(Cl)c(Cl)c3)(C1)C2)P(=O)(O)O (stereo not drawn) [Example 151, (1-((3-((3,4-Dichlorophenyl)carbamoyl)bicyclo[1.1.1]pentan-1-yl)amino)-4-methyl-1-oxopentan-2-yl)phosphonic acid] | 347 ± 12 nM |
| CC(C)CC(C(=O)N[C@@H](C)C(=O)Nc1ccc(Cl)c(Cl)c1)P(=O)(O)O (stereo partly drawn) [Example 153] | 62 ± 2 nM |
| CC[C@H](C)[C@H](NC(=O)C(CC(C)C)P(=O)(O)O)C(=O)Nc1ccc(Cl)c(Cl)c1 (stereo partly drawn) [Example 154] | 13 ± 1 nM |
| CC(C)CC(C(=O)N[C@@H](CC(C)C)C(=O)Nc1ccc(Cl)c(Cl)c1)P(=O)(O)O (stereo partly drawn) [Example 155] | 60 ± 2 nM |

same assay, conditions: IC50 against LasB (Table 16), heteropentacycles and benzannulated heteropentacycles

| Compound | IC50 |
| --- | --- |
| CC(C)CC(C(=O)N[C@H](c1ncc(-c2ccc(Cl)c(Cl)c2)[nH]1)C(C)C)P(=O)(O)O (mixture of isomers) [Example 171, (1-(((S)-1-(5-(3,4-dichlorophenyl)-1H-imidazol-2-yl)-2-methylpropyl)amino)-4-methyl-1-oxopentan-2-yl)phosphonic acid] | 6000 ± 200 nM |

same assay, conditions: read-out: IC50 against LasB

| Compound | IC50 |
| --- | --- |
| Cc1ccccc1NC(=O)C(S)Cc1ccccc1 (stereo not drawn) [Example 6] | 2400 ± 1000 nM |
| O=C(Nc1ccccc1)C(S)Cc1ccc(O)c([N+](=O)[O-])c1 (stereo not drawn) [Example 12] | 2500 ± 100 nM |
| Cc1ccc(CC(S)C(=O)Nc2ccccc2)cc1 (stereo not drawn) [Example 13] | 2800 ± 300 nM |
| O=C(Nc1ccc(Cl)c(Cl)c1)C(S)CC1CC1 (stereo not drawn) [Example 45] | 6300 ± 1200 nM |
| O=C(Nc1ccc(Cl)c(Cl)c1)C(S)CC1CCCCC1 (stereo not drawn) [Example 47] | 12000 ± 3000 nM |
| O=C(Nc1nc2ccc(Cl)cc2s1)C(S)Cc1ccccc1 (stereo not drawn) [Example 57] | 2400 ± 200 nM |
| O=C(Nc1nccs1)C(S)Cc1ccccc1 (stereo not drawn) [Example 58] | 1600 ± 100 nM |
| COC(=O)c1ccsc1NC(=O)C(S)Cc1ccccc1 (stereo not drawn) [Example 59] | 8000 ± 1000 nM |
| O=C(Nc1cccnc1)C(S)Cc1ccccc1 (stereo not drawn) [Example 60] | 1200 ± 100 nM |
